In test [1] the test system is human H1299 lung cancer cells. Conditions: H1299, sub-lethal doses 0.2, 0.5, 1.0 μM. Here is the method: The cancer cell invasion assay was performed in a Cell Invasion Chamber, a 24-well tissue culture plate with cell culture inserts that contain an […] pore size polycarbonate membrane over a thin layer of dried ECMatrix™ (CHEMICON).
To determine the inhibitory effect of cobalt-polypyridyl complexes of the present invention in cancer cell invasion, human H1299 lung cancer cells with well-known cell invasion ability were treated with the cobalt-polypyridyl complex of Formula (IV) in its sub-lethal (non-toxic) doses.

For another test, the system named is HepG2 (liver cancer). Briefly: MTT cytotoxicity assay, HepG2. It is filed as cell-based. Conditions: 72 h. As to the method:
(§1) All prepared cobalt-polypyridyl complexes were dissolved in DMSO at a final concentration of 50 mmol/L and stored at −20° C. before use. Cytotoxicity was assessed by using the 3-(4,5-dimethylthiazol-2-yl)-2,5-diphenyltetrazolium bromide (MTT) (5.0 mg/ml) assay as previously described (Wong, V. K. et al., Cell Death Dis, 2013, 4, e720). Briefly, 4×10^3 cells per well were seeded in 96-well plates before drug treatments. After overnight culture, the cells were then exposed to different concentrations of selected compounds (0.039-100 μmol/L) for 72 h. Cells without drug treatment were used as control. Subsequently, MTT (10 μL) solution was added to each well and incubated at 37° C. for 4 h followed by the addition of 100 μL solubilization buffer (10% SDS in 0.01 mol/L HCl) and overnight incubation. A570 nm was then determined in each well on the next day. The percentage of cell viability was calculated using the following formula: Cell viability (%)=Atreated/Acontrol×100. Data were obtained from three independent experiments. Cells include HeLa cells (cervical cancer), MCF-7 (breast cancer), H1299, H1975, A549 and LLC-1 (lung cancer), HepG2 and Hep3B (liver cancer) and LO2 (normal human hepatocytes).

Test [2] concerns LO2 (normal human hepatocytes). The test can be described thus: MTT cytotoxicity assay, LO2. Conditions: 72 h. It is filed as cell-based. As to the method:
as §1

Test [3] concerns Taxol-resistant A549 cancer cells. Briefly: MTT cytotoxicity, taxol-resistant A549. It is filed as cell-based. Here is the method: as §1, with “experiments.” for “experiments. Cells include HeLa cells (cervical cancer), MCF-7 (breast cancer), H1299, H1975, A549 and LLC-1 (lung cancer), HepG2 and Hep3B (liver cancer) and LO2 (normal human hepatocytes).”
(§2) All cells were obtained from the American Type Culture Collection (Rockville, Md., USA) unless otherwise specified. Immortalized wild-type and Atg7-deficient mouse embryonic fibroblasts (MEFs) were provided by Professor Masaaki Komatsu (Juntendo University, School of Medicine, Japan). Taxol-resistant types of A549, MCF-7, HCT-8 cancer cells, cisplatin-resistant SGC7901 cancer cells were purchased from KeyGEN BioTECH, China.

Test [4] has as its system Taxol-sensitive MCF-7 cancer cells. Briefly: MTT cytotoxicity, taxol-sensitive MCF-7. Format: cell-based. Conditions: MCF-7, MTT, 72 h. Here is the method:
as §1, with “experiments.” for “experiments. Cells include HeLa cells (cervical cancer), MCF-7 (breast cancer), H1299, H1975, A549 and LLC-1 (lung cancer), HepG2 and Hep3B (liver cancer) and LO2 (normal human hepatocytes).”

Test [5] deals with HeLa cells (cervical cancer). The test can be described thus: MTT cytotoxicity assay, HeLa. Format: cell-based. Conditions: 72 h. Here is the method: as §1
The next test deals with Hep 3B (liver cancer). The test can be described thus: MTT cytotoxicity assay, Hep3B. Conditions: 72 h. It is filed as cell-based. Here is the method: as §1
For test [6], the system named is cisplatin-sensitive SGC-7901 gastric cancer cells. Briefly: MTT cytotoxicity, cisplatin-sensitive SGC-7901. Format: cell-based. Conditions: SGC-7901, MTT, 72 h. Here is the method:
as §1, with “experiments.” for “experiments. Cells include HeLa cells (cervical cancer), MCF-7 (breast cancer), H1299, H1975, A549 and LLC-1 (lung cancer), HepG2 and Hep3B (liver cancer) and LO2 (normal human hepatocytes).”

The test system of test [7] is Taxol-resistant MCF-7 cancer cells. Briefly: MTT cytotoxicity, taxol-resistant MCF-7. Format: cell-based. Here is the method: as §1, with “experiments.” for “experiments. Cells include HeLa cells (cervical cancer), MCF-7 (breast cancer), H1299, H1975, A549 and LLC-1 (lung cancer), HepG2 and Hep3B (liver cancer) and LO2 (normal human hepatocytes).”
as §2

Test [8] concerns Taxol-resistant HCT8 cancer cells. Briefly: MTT cytotoxicity, taxol-resistant HCT8. Format: cell-based. As to the method: as §1, with “experiments.” for “experiments. Cells include HeLa cells (cervical cancer), MCF-7 (breast cancer), H1299, H1975, A549 and LLC-1 (lung cancer), HepG2 and Hep3B (liver cancer) and LO2 (normal human hepatocytes).”
as §2

In another test the test system is LLC-1 (lung cancer). The test can be described thus: MTT cytotoxicity assay, LLC-1. Format: cell-based. Conditions: LLC-1, MTT, 72 h. Here is the method:
as §1

Test [9] relates to Taxol-sensitive HCT8 cancer cells. Briefly: MTT cytotoxicity, taxol-sensitive HCT8. It is filed as cell-based. Conditions: 72 h. As to the method:
as §1, with “experiments.” for “experiments. Cells include HeLa cells (cervical cancer), MCF-7 (breast cancer), H1299, H1975, A549 and LLC-1 (lung cancer), HepG2 and Hep3B (liver cancer) and LO2 (normal human hepatocytes).”

The subject of test [10] is cisplatin-resistant A2780 ovarian cancer cells. The test can be described thus: MTT cytotoxicity, cisplatin-resistant A2780. It is filed as cell-based. Here is the method: as §1, with “experiments.” for “experiments. Cells include HeLa cells (cervical cancer), MCF-7 (breast cancer), H1299, H1975, A549 and LLC-1 (lung cancer), HepG2 and Hep3B (liver cancer) and LO2 (normal human hepatocytes).”
(§3) Cisplatin-sensitive or -resistant A2780, OV2008 and C13 cancer cells were provided by Prof. Benjamin Tsang (Department of Obstetrics and Gynecology and Department of Cellular and Molecular Medicine, University of Ottawa, Canada). HCT116 p53^+/+ and p53^−/− isogenic human colon cancer cells were provided by Professor Bert Vogelstein (Ludwig Center at Johns Hopkins, Howard Hughes Medical Institute, USA). All media were supplemented with 10% fetal bovine serum and the antibiotics penicillin (50 U/ml) and streptomycin (50 μg/ml; Invitrogen, Paisley, Scotland, UK). All cell cultures were incubated at 37° C. in a 5% humidified CO2 incubator.

In the next test the test system is A549 (lung cancer). The test can be described thus: MTT cytotoxicity assay, A549. It is filed as cell-based. Conditions: 72 h. Here is the method:
as §1

Test [11] deals with OV2008/C13 cervical cancer cells. The test can be described thus: MTT cytotoxicity, OV2008/C13 (cisplatin-resistant). Format: cell-based. As to the method:
as §1, with “experiments.” for “experiments. Cells include HeLa cells (cervical cancer), MCF-7 (breast cancer), H1299, H1975, A549 and LLC-1 (lung cancer), HepG2 and Hep3B (liver cancer) and LO2 (normal human hepatocytes).”
as §3

The next test concerns HeLa cancer cells. As to the method:
For cell cycle analysis, the cells were harvested and washed with ice-cold phosphate-buffered saline (PBS), and then suspended and permeabilized with 70% ethanol for overnight at 4° C. For detecting DNA content and cell cycle, cells were incubated with the freshly prepared propidium iodide (PI) staining buffer for 30 min at room temperature in dark. Fractions of the cells in G1, S, and G2/M phase were analyzed using Modfit software 3.1.
To investigate whether the cobalt-polypyridyl complexes could suppress cancer cell growth by arresting cell cycle progression, HeLa cancer cells were treated with different concentrations of the cobalt-polypyridyl complex of Formula (IV) (with PF6^− as counterion).

This is an account of results in patent publication US9895338B1, “Cobalt-polypyridyl complex for treatment of cancer, a pharmaceutical composition and a kit comprising it” (Macau University of Science and Technology, priority 2016, dated 2018).

Where two headings read alike, the source gives them in different places.

As to `Cc1ccnc(-c2cc(C)ccn2)c1.Cc1ccnc(-c2cc(C)ccn2)c1.Cc1ccnc(-c2cc(C)ccn2)c1.F[P-](F)(F)(F)(F)F.F[P-](F)(F)(F)(F)F.F[P-](F)(F)(F)(F)F.[Co+3]` [complex (IV), [Co^III(4,4′-Me2-Bpy)3.](PF6)3], the “cell invasion (fluorescence signal of invaded cells)” value in test [1] is “dose-dependently decrease the cell fluorescence signal”. In addition, the half-maximal inhibitory concentration (IC50) in the test with HepG2 (liver cancer) came to 5.44 µM; in test [2] it was 13.2 µM; in [3] (A549, MTT, 72 h), 2.85 µM; in [4] it was 4 µM; in test [5] it was 11.9 µM; in the test with Hep 3B (liver cancer) it was 3.7 µM. Moreover, the IC50 worked out at 11.1 µM in test [6]; 2.71 µM in [7] (MCF-7, MTT, 72 h); 1.22 µM in test [8] (HCT8, MTT, 72 h); 3.39 µM in the test with LLC-1 (lung cancer); 3.39 µM in test [9]; 10.7 µM in [10] (A2780, MTT, 72 h). The 50% inhibitory concentration (IC50) in the test with A549 (lung cancer) is 7.86 µM; in [11] (OV2008/C13, MTT, 72 h), 7.59 µM. The “Resistant Factor” value in test [3] (A549, IC50 taxol-resistant over IC50 taxol-sensitive) stood at 0.25; in test [7] (MCF-7, IC50 taxol-resistant over IC50 taxol-sensitive), 0.68; in test [8] (HCT8, IC50 taxol-resistant over IC50 taxol-sensitive), 0.36; in [10] (A2780, cisplatin-resistant over cisplatin-sensitive), 0.87; in test [11] (OV2008/C13 over OV2008), 1.0. The “effect on cell cycle progression” value is on record as “arrest HeLa cancer cell in S-phase” with HeLa cancer cells (high concentration) and “negligible effect on cell cycle progression” in the test with HeLa cancer cells (low concentration).
